Source: patent US9637496B2, “Substituted 7-azabicycles and their use as orexin receptor modulators” (priority 2013, dated 2017)
Where two headings read alike, the source gives them in different places.

Experiments:
[1] = molecular target: human orexin 2 receptor (Homo sapiens (Human), UniProt O43614); experiment: Human orexin 2 receptor radioligand binding ([3H]-EMPA competition, HEK293 membranes); details: read-out: hOX2 Ki
[2] = molecular target: human orexin 1 receptor (Homo sapiens (Human), UniProt O43613); experiment: Human orexin 1 receptor radioligand binding (competitive binding, CHO membranes); details: read-out: hOX1 Ki
[3] = molecular target: rat orexin 1 receptor (Rattus norvegicus (Rat), UniProt P56718); experiment: Rat orexin 1 receptor radioligand binding (competitive binding, HEK293 membranes); details: read-out: rOX1 Ki
[4] = human orexin 2 receptor, Table 2, averages from between 2-20 runs
[5] = human orexin 1 receptor, Table 2, averages from between 2-20 runs
[6] = rat orexin 1 receptor, Table 2, averages from between 2-20 runs
[7] = Table 2, further testing, averages from 2-20 runs

Chain of rat orexin 1 receptor (P56718 whole entry): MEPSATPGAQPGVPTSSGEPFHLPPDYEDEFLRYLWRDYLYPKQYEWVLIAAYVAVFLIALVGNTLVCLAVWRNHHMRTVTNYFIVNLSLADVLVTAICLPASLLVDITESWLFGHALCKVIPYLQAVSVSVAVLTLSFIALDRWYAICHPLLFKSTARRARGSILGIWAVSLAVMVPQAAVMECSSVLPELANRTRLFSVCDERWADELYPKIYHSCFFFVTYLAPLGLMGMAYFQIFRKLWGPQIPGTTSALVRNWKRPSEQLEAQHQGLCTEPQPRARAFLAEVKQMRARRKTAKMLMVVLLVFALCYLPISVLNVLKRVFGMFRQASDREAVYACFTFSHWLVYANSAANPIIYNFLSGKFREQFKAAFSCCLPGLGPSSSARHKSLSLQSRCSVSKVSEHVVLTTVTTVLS
Chain of human orexin 2 receptor (O43614 whole entry): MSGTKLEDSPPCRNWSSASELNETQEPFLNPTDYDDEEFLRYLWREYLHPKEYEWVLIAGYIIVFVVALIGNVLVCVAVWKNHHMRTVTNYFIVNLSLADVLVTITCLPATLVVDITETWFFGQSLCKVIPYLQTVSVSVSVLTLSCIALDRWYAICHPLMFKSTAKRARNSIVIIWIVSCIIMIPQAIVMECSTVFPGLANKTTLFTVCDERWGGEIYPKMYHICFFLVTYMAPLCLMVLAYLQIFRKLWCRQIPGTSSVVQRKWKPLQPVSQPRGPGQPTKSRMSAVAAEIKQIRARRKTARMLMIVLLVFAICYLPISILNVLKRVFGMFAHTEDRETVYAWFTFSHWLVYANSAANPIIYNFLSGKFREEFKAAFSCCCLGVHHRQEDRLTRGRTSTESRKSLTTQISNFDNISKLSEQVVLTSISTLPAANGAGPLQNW
Chain of human orexin 1 receptor (O43613 whole entry): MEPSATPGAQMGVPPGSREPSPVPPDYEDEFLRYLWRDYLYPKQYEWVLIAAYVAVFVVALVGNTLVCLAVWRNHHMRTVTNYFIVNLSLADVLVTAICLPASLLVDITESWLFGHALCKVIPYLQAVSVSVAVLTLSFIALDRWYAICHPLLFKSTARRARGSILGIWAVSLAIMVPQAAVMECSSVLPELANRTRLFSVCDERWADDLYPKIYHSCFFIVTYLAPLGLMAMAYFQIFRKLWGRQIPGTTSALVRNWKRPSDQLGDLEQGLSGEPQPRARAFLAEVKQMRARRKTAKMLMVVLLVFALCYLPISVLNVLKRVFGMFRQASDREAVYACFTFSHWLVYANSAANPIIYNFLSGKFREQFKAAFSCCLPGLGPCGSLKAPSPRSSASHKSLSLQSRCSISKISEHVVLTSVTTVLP

Structure (SMILES) | Ki [1, 7] [nM] | Ki [2, 7] [nM] | Ki [3, 7] [nM] | further results
O=C(c1ccc(F)cc1-c1ncccn1)N1[C@@H]2CC[C@H]1[C@H](Nc1ncc(C(F)(F)F)cn1)C2 [Example 414, (4-fluoro-2-(pyrimidin-2-yl)phenyl)((1S,2R,4R)-2-((5-(trifluoromethyl)pyrimidin-2-yl)amino)-7-azabicyclo[2.2.1]heptan-7-yl)methanone] |  |  |  | Ki [1, 4]: 5800 nM; Ki [2, 5]: 81 nM; Ki [3, 6]: 160 nM
O=C(c1cc(F)ccc1-c1ncccn1)N1[C@@H]2CC[C@H]1[C@H](Nc1ncc(C(F)(F)F)cn1)C2 [Example 415, (5-fluoro-2-(pyrimidin-2-yl)phenyl)((1S,2R,4R)-2-((5-(trifluoromethyl)pyrimidin-2-yl)amino)-7-azabicyclo[2.2.1]heptan-7-yl)methanone] |  |  |  | Ki [1]: 2100 nM; Ki [2]: 70 nM; Ki [3, 6]: 102 nM
O=C(c1c(F)cccc1-c1ncccn1)N1[C@@H]2CC[C@H]1[C@H](Nc1ncc(C(F)(F)F)cn1)C2 [Example 416, (2-fluoro-6-(pyrimidin-2-yl)phenyl)((1S,2R,4R)-2-((5-(trifluoromethyl)pyrimidin-2-yl)amino)-7-azabicyclo[2.2.1]heptan-7-yl)methanone] |  |  |  | Ki [1, 4]: 2100 nM; Ki [2, 5]: 85 nM; Ki [3, 6]: 138 nM
O=C(c1ccccc1-c1ncccn1)N1[C@@H]2CC[C@H]1[C@H](Nc1ncc(C(F)(F)F)cn1)C2 [Example 417, (2-(pyrimidin-2-yl)phenyl)((1S,2R,4R)-2-((5-(trifluoromethyl)pyrimidin-2-yl)amino)-7-azabicyclo[2.2.1]heptan-7-yl)methanone] |  |  |  | Ki [1, 4]: 1900 nM; Ki [2]: 41 nM; Ki [3]: 52 nM
Cc1cnc(C(=O)N2[C@@H]3CC[C@H]2[C@H](Nc2ncc(C(F)(F)F)cc2F)C3)c(-n2nccn2)c1 [Example 420, ((1S,2R,4R)-2-((3-fluoro-5-(trifluoromethyl)pyridin-2-yl)amino)-7-azabicyclo[2.2.1]heptan-7-yl)(5-methyl-3-(2H-1,2,3-triazol-2-yl)pyridin-2-yl)methanone] |  |  |  | Ki [1, 4]: 884 nM; Ki [2, 5]: 114 nM; Ki [3, 6]: 100 nM
O=C(c1ccccc1-n1nccn1)N1[C@@H]2CC[C@H]1[C@H](Nc1ncc(C(F)(F)F)cc1F)C2 [Example 448, (2-(2H-1,2,3-triazol-2-yl)phenyl)((1S,2R,4R)-2-((3-fluoro-5-(trifluoromethyl)pyridin-2-yl)amino)-7-azabicyclo[2.2.1]heptan-7-yl)methanone] | 666 | 33 | 41 | 
O=C(c1cccc(F)c1-n1nccn1)N1[C@@H]2CC[C@H]1[C@H](Nc1ncc(C(F)(F)F)cc1F)C2 [Example 449, (3-fluoro-2-(2H-1,2,3-triazol-2-yl)phenyl)((1S,2R,4R)-2-((3-fluoro-5-(trifluoromethyl)pyridin-2-yl)amino)-7-azabicyclo[2.2.1]heptan-7-yl)methanone] | 873 | 41 | 34 | 
Cc1cccc(C(=O)N2[C@@H]3CC[C@H]2[C@H](Nc2ncc(C(F)(F)F)cc2F)C3)c1-n1nccn1 [Example 450, ((1S,2R,4R)-2-((3-fluoro-5-(trifluoromethyl)pyridin-2-yl)amino)-7-azabicyclo[2.2.1]heptan-7-yl)(3-methyl-2-(2H-1,2,3-triazol-2-yl)phenyl)methanone] | 340 | 32 | 14 | 
Cc1ccc(-n2nccn2)c(C(=O)N2[C@@H]3CC[C@H]2[C@H](Nc2ncc(C(F)(F)F)cc2F)C3)n1 [Example 451, ((1S,2R,4R)-2-((3-fluoro-5-(trifluoromethyl)pyridin-2-yl)amino)-7-azabicyclo[2.2.1]heptan-7-yl)(6-methyl-3-(2H-1,2,3-triazol-2-yl)pyridin-2-yl)methanone] | 517 |  |  | Ki [2]: 84 nM; Ki [3]: 82 nM
Cc1ccc(C(=O)N2[C@@H]3CC[C@H]2[C@H](Nc2ncc(C(F)(F)F)cc2F)C3)c(-n2nccn2)n1 [Example 452, ((1S,2R,4R)-2-((3-fluoro-5-(trifluoromethyl)pyridin-2-yl)amino)-7-azabicyclo[2.2.1]heptan-7-yl)(6-methyl-2-(2H-1,2,3-triazol-2-yl)pyridin-3-yl)methanone] | 437 | 223 | 176 | 
Cc1cnc(-n2nccn2)c(C(=O)N2[C@@H]3CC[C@H]2[C@H](Nc2ncc(C(F)(F)F)cc2F)C3)c1 [Example 453, ((1S,2R,4R)-2-((3-fluoro-5-(trifluoromethyl)pyridin-2-yl)amino)-7-azabicyclo[2.2.1]heptan-7-yl)(5-methyl-2-(2H-1,2,3-triazol-2-yl)pyridin-3-yl)methanone] | > 10000 | 305 | 210 | 
O=C(c1cccc(F)c1-c1ncco1)N1[C@@H]2CC[C@H]1[C@H](Nc1ncc(C(F)(F)F)cc1F)C2 [Example 454, (3-fluoro-2-(oxazol-2-yl)phenyl)((1S,2R,4R)-2-((3-fluoro-5-(trifluoromethyl)pyridin-2-yl)amino)-7-azabicyclo[2.2.1]heptan-7-yl)methanone] | 590 | 23 | 18 | 
Cc1ccc(-c2ncccn2)c(C(=O)N2[C@@H]3CC[C@H]2[C@H](Nc2ncc(C(F)(F)F)cc2F)C3)n1 [Example 456, ((1S,2R,4R)-2-((3-fluoro-5-(trifluoromethyl)pyridin-2-yl)amino)-7-azabicyclo[2.2.1]heptan-7-yl)(6-methyl-3-(pyrimidin-2-yl)pyridin-2-yl)methanone] | 454 |  |  | Ki [2]: 48 nM; Ki [3]: 68 nM
Cc1cnc(C(=O)N2[C@@H]3CC[C@H]2[C@H](Nc2ncc(C(F)(F)F)cc2F)C3)c(-c2ncccn2)c1 [Example 457, ((1S,2R,4R)-2-((3-fluoro-5-(trifluoromethyl)pyridin-2-yl)amino)-7-azabicyclo[2.2.1]heptan-7-yl)(5-methyl-3-(pyrimidin-2-yl)pyridin-2-yl)methanone] | 9100 | 98 | 55 | 
O=C(c1ncccc1-c1ncccn1)N1[C@@H]2CC[C@H]1[C@H](Nc1ncc(C(F)(F)F)cc1F)C2 [Example 458, ((1S,2R,4R)-2-((3-fluoro-5-(trifluoromethyl)pyridin-2-yl)amino)-7-azabicyclo[2.2.1]heptan-7-yl)(3-(pyrimidin-2-yl)pyridin-2-yl)methanone] | 932 | 45 | 46 | 
O=C(c1c(F)cccc1-c1ncccn1)N1[C@@H]2CC[C@H]1[C@H](Nc1ncc(C(F)(F)F)cc1F)C2 [Example 459, ((1S,2R,4R)-2-((3-fluoro-5-(trifluoromethyl)pyridin-2-yl)amino)-7-azabicyclo[2.2.1]heptan-7-yl)(2-fluoro-6-(pyrimidin-2-yl)phenyl)methanone] | 530 | 71 | 26 | 
O=C(c1ccccc1-c1ncc(F)cn1)N1[C@@H]2CC[C@H]1[C@H](Nc1ncc(C(F)(F)F)cc1F)C2 [Example 460, ((1S,2R,4R)-2-((3-fluoro-5-(trifluoromethyl)pyridin-2-yl)amino)-7-azabicyclo[2.2.1]heptan-7-yl)(2-(5-fluoropyrimidin-2-yl)phenyl)methanone] | 1300 | 41 | 57 | 
O=C(c1ccccc1-c1ncccn1)N1[C@@H]2CC[C@H]1[C@H](Nc1ncc(C(F)(F)F)cc1F)C2 [Example 461, ((1S,2R,4R)-2-((3-fluoro-5-(trifluoromethyl)pyridin-2-yl)amino)-7-azabicyclo[2.2.1]heptan-7-yl)(2-(pyrimidin-2-yl)phenyl)methanone] | 760 | 24 | 30 | 
Cc1cccc(C(=O)N2[C@@H]3CC[C@H]2[C@H](Nc2ncc(C(F)(F)F)cc2F)C3)c1-c1ncccn1 [Example 462, ((1S,2R,4R)-2-((3-fluoro-5-(trifluoromethyl)pyridin-2-yl)amino)-7-azabicyclo[2.2.1]heptan-7-yl)(3-methyl-2-(pyrimidin-2-yl)phenyl)methanone] | 339 | 31 | 18 | 
O=C(c1cccc(F)c1-c1ncc(F)cn1)N1[C@@H]2CC[C@H]1[C@H](Nc1ncc(C(F)(F)F)cc1F)C2 [Example 463, (3-fluoro-2-(5-fluoropyrimidin-2-yl)phenyl)((1S,2R,4R)-2-((3-fluoro-5-(trifluoromethyl)pyridin-2-yl)amino)-7-azabicyclo[2.2.1]heptan-7-yl)methanone] | 1900 |  |  | Ki [2]: 50 nM; Ki [3]: 53 nM
